# From PubChem BioAssay (NCI)
#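 Where inhibition never reached the appropriate level, the endpoint shown equals the highest concentration tested. Otherwise, values were interpolated linearly from a five-concentration, 48-hour dose response in 96-well plates. GI50 is the concentration that inhibits growth by half. TGI marks complete inhibition of growth.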
# Columns and labels:
# Assay in all cases: inhibition of tumour cell growth, NCI panel, 48 h
# [1] = tested on: IGROV1 ovarian
# [2] = tested on: HL-60(TB) leukemia
# [3] = tested on: MDA-MB-435
# [4] = tested on: NCI/ADR-RES ovarian
# [5] = tested on: SF-539 CNS
# [6] = tested on: TK-10 renal
# [7] = tested on: SK-MEL-2 melanoma
# [8] = tested on: UACC-62 melanoma
# [9] = tested on: MDA-MB-468 breast
# [10] = tested on: COLO 205 colon
# [11] = tested on: K-562 leukemia
# [12] = tested on: SNB-75 CNS
# [13] = tested on: CAKI-1 renal
# [14] = tested on: MDA-MB-231 breast
# [15] = tested on: SK-OV-3 ovarian
# [16] = tested on: HOP-62 NSCLC
# [17] = tested on: RXF 393 renal
# [18] = tested on: UACC-257 melanoma
# [19] = tested on: HT29 colon
# [20] = tested on: NCI-H23 lung
# [21] = tested on: SF-295 CNS
# [22] = tested on: HCT-15 colon
# [23] = tested on: SR leukemia
# [24] = tested on: LOX IMVI melanoma
# [25] = tested on: M14 melanoma
# [26] = tested on: U251 CNS
# [27] = tested on: SK-MEL-28 melanoma
# [28] = tested on: KM12 colon
# [29] = tested on: CCRF-CEM leukemia
# [30] = tested on: PC-3 prostate
# [31] = tested on: A498 renal
# [32] = tested on: NCI-H522 lung
# [33] = tested on: RPMI-8226 leukemia
# [34] = tested on: MOLT-4 leukemia
# [35] = tested on: HOP-92 NSCLC
# [36] = tested on: HCT-116 colon
# [37] = tested on: SF-268 CNS
# [38] = tested on: DU-145 prostate
# [39] = tested on: SNB-19 CNS
# [40] = tested on: 786-0 renal
# [41] = tested on: OVCAR-8 ovarian
# [42] = tested on: HS 578T breast
# [43] = tested on: BT-549 breast
# [44] = tested on: A549 NSCLC
# [45] = tested on: MALME-3M melanoma
# [46] = tested on: SW-620 colon
structure (smiles),measurement,setting,value
Cc1noc2c(Cc3ccccc3)nn(CC(=O)N/N=C/c3ccc(Cl)cc3)c(=O)c12,GI50,[1],6.95 µM
same,TGI,[1],31.2 µM
same,GI50,[2],> 100 µM
same,TGI,[2],> 100 µM
same,GI50,[3],> 100 µM
same,TGI,[3],> 100 µM
same,GI50,[4],4.93 µM
same,TGI,[4],> 100 µM
same,GI50,[5],14.1 µM
same,TGI,[5],35.9 µM
same,GI50,[6],1.9 µM
same,TGI,[6],4.74 µM
same,GI50,[7],19.1 µM
same,TGI,[7],38.4 µM
same,GI50,[8],18.3 µM
same,TGI,[8],86 µM
same,GI50,[9],8.11 µM
same,TGI,[9],36.2 µM
same,GI50,[10],5.04 µM
same,TGI,[10],> 100 µM
same,GI50,[11],88.6 µM
same,TGI,[11],> 100 µM
same,GI50,[12],1.59 µM
same,TGI,[12],4.36 µM
same,GI50,[13],2.88 µM
same,TGI,[13],11.1 µM
same,GI50,[14],2.59 µM
same,TGI,[14],7.3 µM
same,GI50,[15],2.34 µM
same,TGI,[15],5.85 µM
same,GI50,[16],2.06 µM
same,TGI,[16],4.97 µM
same,GI50,[17],2.15 µM
same,TGI,[17],6.87 µM
same,GI50,[18],> 100 µM
same,TGI,[18],> 100 µM
same,GI50,[19],> 100 µM
same,TGI,[19],> 100 µM
same,GI50,[20],10.2 µM
same,TGI,[20],53.7 µM
same,GI50,[21],3.19 µM
same,TGI,[21],8.64 µM
same,GI50,[22],> 100 µM
same,TGI,[22],> 100 µM
same,GI50,[23],31.2 µM
same,TGI,[23],> 100 µM
same,GI50,[24],5.61 µM
same,TGI,[24],> 100 µM
same,GI50,[25],43.6 µM
same,TGI,[25],> 100 µM
same,GI50,[26],3.64 µM
same,TGI,[26],> 100 µM
same,GI50,[27],> 100 µM
same,TGI,[27],> 100 µM
same,GI50,[28],> 100 µM
same,TGI,[28],> 100 µM
same,GI50,[29],21.1 µM
same,TGI,[29],> 100 µM
same,GI50,[30],> 100 µM
same,TGI,[30],> 100 µM
same,GI50,[31],1.65 µM
same,TGI,[31],3.11 µM
same,GI50,[32],15.4 µM
same,TGI,[32],> 100 µM
same,GI50,[33],8.98 µM
same,TGI,[33],> 100 µM
same,GI50,[34],> 100 µM
same,TGI,[34],> 100 µM
same,GI50,[35],3.01 µM
same,TGI,[35],16.6 µM
same,GI50,[36],3.16 µM
same,TGI,[36],> 100 µM
same,GI50,[37],7.82 µM
same,TGI,[37],> 100 µM
same,GI50,[38],> 100 µM
same,TGI,[38],> 100 µM
same,GI50,[39],8.48 µM
same,TGI,[39],26.7 µM
same,GI50,[40],1.94 µM
same,TGI,[40],3.84 µM
same,GI50,[41],3.18 µM
same,TGI,[41],> 100 µM
same,GI50,[42],2.31 µM
same,TGI,[42],6.23 µM
same,GI50,[43],23.8 µM
same,TGI,[43],90.6 µM
same,GI50,[44],3.87 µM
same,TGI,[44],> 100 µM
same,GI50,[45],4.23 µM
same,TGI,[45],29.1 µM
same,GI50,[46],> 100 µM
same,TGI,[46],> 100 µM
